Data published in publication PMC9081605, “A High-Throughput Toxicity Screen of 42 Per- and Polyfluoroalkyl Substances (PFAS) and Functional Assessment of Migration and Gene Expression in Human Placental Trophoblast Cells” (Frontiers in Toxicology, 2022).
“Also recorded” adds a separate entry of the source.

Test system: JEG-3 cells
Experiment: Gene expression, custom NanoString code set of 46 genes
Type: cell-based, human
Protocol: JEG-3 cells were seeded at a density of 80,000 cells per well in six well plates and allowed to adhere overnight (24 h). The following day, media was removed and replaced with exposure media, then returned to the incubator for 24 h. The test compounds included non-cytotoxic concentrations of PFOA (0, 1, and 100 µM) and GenX (0, 3, 300 µM). These test compounds were selected a priori due to their high public health relevance. Each 6 well plate contained the three concentrations for either PFOA or GenX, with each condition in technical duplicate. Plates containing these PFOA or GenX exposure conditions were replicated three times (N = 3). After 24 h, exposure media was aspirated and cells were washed in ice cold 1xPBS, which was then aspirated. Each well received 500 µl of TRIzol reagent (Thermo Fisher Scientific, MA, United States) and cells were harvested in the TRIzol using a cell scraper. Technical duplicate wells within a plate were combined to generate a single sample of ∼1,000 µl. RNA was isolated from the resulting cellular homogenate using RNeasy Mini Kits (Qiagen, Hilden, Germany). Isolated RNA quality was validated and concentration determined using a NanoDrop 2000 (Thermo Fisher Scientific, MA, United States). 100 ng of mRNA from each sample was then analyzed using a custom gene expression code set (NanoString, Seattle, WA, United States). The custom code set included 46 genes selected for their downstream involvement in placental development (e.g., WNT4), endocrine signaling (e.g., CYP19A1), fetal growth/nutrient sensing (e.g., IGF2), inflammation (e.g., IL6), oxidative stress (e.g., SOD1, GPX1), and xenobiotic transport/metabolism (e.g., ABCG2, MRP3).
Gene expression data were quantified using the nCounter Digital Analyzer (NanoString, Seattle, WA, United States) and raw and adjusted counts were generated with nSolver (v4.0) software (NanoString, Seattle, WA, United States). Data were adjusted utilizing the manufacturer’s positive and negative experimental control probes, as well as housekeeping genes (ACTA2, ACTB, B2M, LDHA, RNA18S5, and ROLYR2L). All samples passed nSolver’s initial QA/QC controls and replicates were very well correlated with R ^2 values greater than 0.99. Adjusted data were then imported into Partek v7.0 (St. Louis, MO, United States), log2 transformed and quantile normalized for further QA/QC and statistical analyses. Genes with mRNA counts below the detection threshold of 20 were removed due to suboptimal probe hybridization (N = 2 genes for GenX; GH2 and IGFBP5). Fold change values were analyzed by ANOVA with post hoc false discovery rate adjustment (FDR) of p < 0.1. Normalized gene expression values were visualized using pheatmap with Euclidean clustering of genes and concentration groups ([Kolde and Kolde, 2015]).

O=C(O)C(F)(F)C(F)(F)C(F)(F)C(F)(F)C(F)(F)C(F)(F)C(F)(F)F [Perfluorooctanoic acid]
11BHSD2 gene expression, fold change over untreated control (1 µM, 24 h): -1.06
17BHSD1 gene expression, fold change over untreated control (1 µM, 24 h): -1.02
ABCG2 gene expression, fold change over untreated control (1 µM, 24 h): -1.07
AHR gene expression, fold change over untreated control (1 µM, 24 h): -1.09
AHRR gene expression, fold change over untreated control (1 µM, 24 h): significantly altered
CAT gene expression, fold change over untreated control (1 µM, 24 h): 1.02
CGB5 gene expression, fold change over untreated control (1 µM, 24 h): 1.00
COX2 gene expression, fold change over untreated control (1 µM, 24 h): -1.11
CTNNB1 gene expression, fold change over untreated control (1 µM, 24 h): 1.00
CYP1A1 gene expression, fold change over untreated control (1 µM, 24 h): 1.05
CYP3A5 gene expression, fold change over untreated control (1 µM, 24 h): 1.28
CYP3A7 gene expression, fold change over untreated control (1 µM, 24 h): 1.15
CYP19A1 gene expression, fold change over untreated control (1 µM, 24 h): -1.05
EGFR gene expression, fold change over untreated control (1 µM, 24 h): 1.07
ENG gene expression, fold change over untreated control (1 µM, 24 h): 1.02
ESRRA gene expression, fold change over untreated control (1 µM, 24 h): 1.00
ESRRG gene expression, fold change over untreated control (1 µM, 24 h): -1.04
GH2 gene expression, fold change over untreated control (1 µM, 24 h): 1.02
GHR gene expression, fold change over untreated control (1 µM, 24 h): 1.00
GPER1 gene expression, fold change over untreated control (1 µM, 24 h): 1.02
GPX1 gene expression, fold change over untreated control (1 µM, 24 h): 1.00
HIF1A gene expression, fold change over untreated control (1 µM, 24 h): 1.00
IGF2 gene expression, fold change over untreated control (1 µM, 24 h): 1.00
IGFBP5 gene expression, fold change over untreated control (1 µM, 24 h): -1.13
IGFR1 gene expression, fold change over untreated control (1 µM, 24 h): 1.03
IGFR2 gene expression, fold change over untreated control (1 µM, 24 h): 1.05
IL6 gene expression, fold change over untreated control (1 µM, 24 h): -1.05
MRP1 gene expression, fold change over untreated control (1 µM, 24 h): -1.03
MRP2 gene expression, fold change over untreated control (1 µM, 24 h): 1.09
MRP3 gene expression, fold change over untreated control (1 µM, 24 h): -1.08
NFKB1 gene expression, fold change over untreated control (1 µM, 24 h): 1.00
NFKB2 gene expression, fold change over untreated control (1 µM, 24 h): 1.00
NR3C1 gene expression, fold change over untreated control (1 µM, 24 h): 1.09
PGF gene expression, fold change over untreated control (1 µM, 24 h): 1.00
PMM1 gene expression, fold change over untreated control (1 µM, 24 h): -1.03
ROLYR2L gene expression, fold change over untreated control (1 µM, 24 h): 1.00
SLC2A1 gene expression, fold change over untreated control (1 µM, 24 h): -1.02
SOD1 gene expression, fold change over untreated control (1 µM, 24 h): 1.00
TGFB1 gene expression, fold change over untreated control (1 µM, 24 h): 1.00
VEGFA gene expression, fold change over untreated control (1 µM, 24 h): 1.00
VEGFB gene expression, fold change over untreated control (1 µM, 24 h): -1.00
WNT4 gene expression, fold change over untreated control (1 µM, 24 h): 1.25
WNT6 gene expression, fold change over untreated control (1 µM, 24 h): -1.04
WNT7B gene expression, fold change over untreated control (1 µM, 24 h): 1.06
mTOR gene expression, fold change over untreated control (1 µM, 24 h): 1.00
11BHSD2 gene expression, fold change over untreated control (100 µM, 24 h): -1.03
AHR gene expression, fold change over untreated control (100 µM, 24 h): 1.08
AHRR gene expression, fold change over untreated control (100 µM, 24 h): 1.00
CAT gene expression, fold change over untreated control (100 µM, 24 h): -1.06
CGB5 gene expression, fold change over untreated control (100 µM, 24 h): -1.15
COX2 gene expression, fold change over untreated control (100 µM, 24 h): 1.03
CTNNB1 gene expression, fold change over untreated control (100 µM, 24 h): 1.00
CYP1A1 gene expression, fold change over untreated control (100 µM, 24 h): 1.18
CYP2E1 gene expression, fold change over untreated control (100 µM, 24 h): 1.00
CYP3A5 gene expression, fold change over untreated control (100 µM, 24 h): -1.18
CYP3A7 gene expression, fold change over untreated control (100 µM, 24 h): -1.22
CYP19A1 gene expression, fold change over untreated control (100 µM, 24 h): 1.00
EGFR gene expression, fold change over untreated control (100 µM, 24 h): -1.07
ENG gene expression, fold change over untreated control (100 µM, 24 h): -1.19
ESRRA gene expression, fold change over untreated control (100 µM, 24 h): 1.00
ESRRG gene expression, fold change over untreated control (100 µM, 24 h): -1.16
GH2 gene expression, fold change over untreated control (100 µM, 24 h): 1.12
GHR gene expression, fold change over untreated control (100 µM, 24 h): 1.15
GPER1 gene expression, fold change over untreated control (100 µM, 24 h): -1.05
GPX1 gene expression, fold change over untreated control (100 µM, 24 h): non-significant trend of decreased expression
HIF1A gene expression, fold change over untreated control (100 µM, 24 h): 1.00
IGF2 gene expression, fold change over untreated control (100 µM, 24 h): -1.00
IGFBP5 gene expression, fold change over untreated control (100 µM, 24 h): -1.02
IGFR1 gene expression, fold change over untreated control (100 µM, 24 h): 1.08
IGFR2 gene expression, fold change over untreated control (100 µM, 24 h): significantly altered
IL6 gene expression, fold change over untreated control (100 µM, 24 h): 1.10
MRP1 gene expression, fold change over untreated control (100 µM, 24 h): -1.06
MRP2 gene expression, fold change over untreated control (100 µM, 24 h): -1.03
MRP3 gene expression, fold change over untreated control (100 µM, 24 h): -1.12
NFKB1 gene expression, fold change over untreated control (100 µM, 24 h): 1.03
NFKB2 gene expression, fold change over untreated control (100 µM, 24 h): 1.00
NR3C1 gene expression, fold change over untreated control (100 µM, 24 h): 1.00
PGF gene expression, fold change over untreated control (100 µM, 24 h): -1.00
PMM1 gene expression, fold change over untreated control (100 µM, 24 h): 1.07
ROLYR2L gene expression, fold change over untreated control (100 µM, 24 h): 1.00
SLC2A1 gene expression, fold change over untreated control (100 µM, 24 h): -1.11
SOD1 gene expression, fold change over untreated control (100 µM, 24 h): 1.00
TGFB1 gene expression, fold change over untreated control (100 µM, 24 h): -1.18
VEGFA gene expression, fold change over untreated control (100 µM, 24 h): 1.08
VEGFB gene expression, fold change over untreated control (100 µM, 24 h): -1.04
WNT4 gene expression, fold change over untreated control (100 µM, 24 h): significantly altered
WNT6 gene expression, fold change over untreated control (100 µM, 24 h): -1.02
WNT7B gene expression, fold change over untreated control (100 µM, 24 h): 1.06
mTOR gene expression, fold change over untreated control (100 µM, 24 h): 1.00
17BHSD1 gene expression, fold change over untreated control (100 µM, 24 h, listed as PFOA): significantly altered; also recorded: significant increase
ABCG2 gene expression, fold change over untreated control (100 µM, 24 h, listed as PFOA): upregulation; also recorded: significantly altered
lowest concentration inducing significant dysregulated expression of placental genes (after 24 h of exposure): 1 µM
